Source: PubChem BioAssay (NCI)
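96-well plates; 48 h exposure; 5 concentrations. Endpoints by linear interpolation between flanking doses. Not reached: highest tested concentration assigned. GI50 marks 50% less growth. TGI: total growth inhibition.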

Experiments:
Assay in all cases: DTP human tumour cell line panel, 48 h
786-0 renal = test system: 786-0 renal
A498 renal = test system: A498 renal
A549 NSCLC = test system: A549 NSCLC
ACHN renal = test system: ACHN renal
BT-549 breast = test system: BT-549 breast
CAKI-1 renal = test system: CAKI-1 renal
CCRF-CEM leukemia = test system: CCRF-CEM leukemia
COLO 205 colon = test system: COLO 205 colon
DU-145 prostate = test system: DU-145 prostate
EKVX NSCLC = test system: EKVX NSCLC
HCC-2998 colon = test system: HCC-2998 colon
HCT-116 colon = test system: HCT-116 colon
HCT-15 colon = test system: HCT-15 colon
HL-60(TB) leukemia = test system: HL-60(TB) leukemia
HOP-62 NSCLC = test system: HOP-62 NSCLC
HOP-92 NSCLC = test system: HOP-92 NSCLC
HS 578T breast = test system: HS 578T breast
HT29 colon = test system: HT29 colon
IGROV1 ovarian = test system: IGROV1 ovarian
K-562 leukemia = test system: K-562 leukemia
KM12 colon = test system: KM12 colon
LOX IMVI melanoma = test system: LOX IMVI melanoma
M14 melanoma = test system: M14 melanoma
MALME-3M melanoma = test system: MALME-3M melanoma
MCF7 breast = test system: MCF7 breast
MDA-MB-231 breast = test system: MDA-MB-231 breast
MDA-MB-435 = test system: MDA-MB-435
MOLT-4 leukemia = test system: MOLT-4 leukemia
NCI-H226 lung = test system: NCI-H226 lung
NCI-H23 lung = test system: NCI-H23 lung
NCI-H460 lung = test system: NCI-H460 lung
NCI-H522 lung = test system: NCI-H522 lung
NCI/ADR-RES ovarian = test system: NCI/ADR-RES ovarian
OVCAR-3 ovarian = test system: OVCAR-3 ovarian
OVCAR-4 ovarian = test system: OVCAR-4 ovarian
OVCAR-5 ovarian = test system: OVCAR-5 ovarian
OVCAR-8 ovarian = test system: OVCAR-8 ovarian
PC-3 prostate = test system: PC-3 prostate
RPMI-8226 leukemia = test system: RPMI-8226 leukemia
RXF 393 renal = test system: RXF 393 renal
SF-268 CNS = test system: SF-268 CNS
SF-295 CNS = test system: SF-295 CNS
SF-539 CNS = test system: SF-539 CNS
SK-MEL-2 melanoma = test system: SK-MEL-2 melanoma
SK-MEL-28 melanoma = test system: SK-MEL-28 melanoma
SK-MEL-5 melanoma = test system: SK-MEL-5 melanoma
SK-OV-3 ovarian = test system: SK-OV-3 ovarian
SN12C renal = test system: SN12C renal
SNB-19 CNS = test system: SNB-19 CNS
SNB-75 CNS = test system: SNB-75 CNS
SR leukemia = test system: SR leukemia
SW-620 colon = test system: SW-620 colon
T-47D breast = test system: T-47D breast
TK-10 renal = test system: TK-10 renal
U251 CNS = test system: U251 CNS
UACC-257 melanoma = test system: UACC-257 melanoma
UACC-62 melanoma = test system: UACC-62 melanoma
UO-31 renal = test system: UO-31 renal

Compound: N#CSc1c[nH]c2cccc(/C=C/C(=O)/C=C(/C=C/c3cccc4[nH]cc(SC#N)c34)OB(F)F)c12
- GI50 (786-0 renal): 344 nM
- TGI (786-0 renal): 2060 nM
- GI50 (A498 renal): 2010 nM
- TGI (A498 renal): 6970 nM
- GI50 (A549 NSCLC): 991 nM
- TGI (A549 NSCLC): 10200 nM
- GI50 (ACHN renal): 389 nM
- TGI (ACHN renal): 1720 nM
- GI50 (BT-549 breast): 1260 nM
- TGI (BT-549 breast): 3860 nM
- GI50 (CAKI-1 renal): 887 nM
- TGI (CAKI-1 renal): 8620 nM
- GI50 (CCRF-CEM leukemia): 315 nM
- TGI (CCRF-CEM leukemia): 17600 nM
- GI50 (COLO 205 colon): 293 nM
- TGI (COLO 205 colon): 856 nM
- GI50 (DU-145 prostate): 1100 nM
- TGI (DU-145 prostate): 2630 nM
- GI50 (EKVX NSCLC): 916 nM
- TGI (EKVX NSCLC): 5810 nM
- GI50 (HCC-2998 colon): 2590 nM
- TGI (HCC-2998 colon): 6890 nM
- GI50 (HCT-116 colon): 244 nM
- TGI (HCT-116 colon): 742 nM
- GI50 (HCT-15 colon): 315 nM
- TGI (HCT-15 colon): 1490 nM
- GI50 (HL-60(TB) leukemia): 293 nM
- TGI (HL-60(TB) leukemia): 5250 nM
- GI50 (HOP-62 NSCLC): 3160 nM
- TGI (HOP-62 NSCLC): 17100 nM
- GI50 (HOP-92 NSCLC): 309 nM
- TGI (HOP-92 NSCLC): 1450 nM
- GI50 (HS 578T breast): 2170 nM
- TGI (HS 578T breast): > 58600 nM
- GI50 (HT29 colon): 386 nM
- TGI (HT29 colon): 2260 nM
- GI50 (IGROV1 ovarian): 448 nM
- TGI (IGROV1 ovarian): 4360 nM
- GI50 (K-562 leukemia): 297 nM
- TGI (K-562 leukemia): 1380 nM
- GI50 (KM12 colon): 1040 nM
- TGI (KM12 colon): 3980 nM
- GI50 (LOX IMVI melanoma): 243 nM
- TGI (LOX IMVI melanoma): 677 nM
- GI50 (M14 melanoma): 558 nM
- TGI (M14 melanoma): 3080 nM
- GI50 (MALME-3M melanoma): 272 nM
- TGI (MALME-3M melanoma): 824 nM
- GI50 (MCF7 breast): 459 nM
- TGI (MCF7 breast): 3630 nM
- GI50 (MDA-MB-231 breast): 442 nM
- TGI (MDA-MB-231 breast): 1570 nM
- GI50 (MDA-MB-435): 270 nM
- TGI (MDA-MB-435): 869 nM
- GI50 (MOLT-4 leukemia): 302 nM
- TGI (MOLT-4 leukemia): 3140 nM
- GI50 (NCI-H226 lung): 2210 nM
- TGI (NCI-H226 lung): 5900 nM
- GI50 (NCI-H23 lung): 755 nM
- TGI (NCI-H23 lung): 3290 nM
- GI50 (NCI-H460 lung): 1120 nM
- TGI (NCI-H460 lung): 6130 nM
- GI50 (NCI-H522 lung): 207 nM
- TGI (NCI-H522 lung): 501 nM
- GI50 (NCI/ADR-RES ovarian): 4300 nM
- TGI (NCI/ADR-RES ovarian): > 100000 nM
- GI50 (OVCAR-3 ovarian): 243 nM
- TGI (OVCAR-3 ovarian): 586 nM
- GI50 (OVCAR-4 ovarian): 338 nM
- TGI (OVCAR-4 ovarian): 3950 nM
- GI50 (OVCAR-5 ovarian): 1810 nM
- TGI (OVCAR-5 ovarian): 6910 nM
- GI50 (OVCAR-8 ovarian): 355 nM
- TGI (OVCAR-8 ovarian): > 59500 nM
- GI50 (PC-3 prostate): 419 nM
- TGI (PC-3 prostate): 4190 nM
- GI50 (RPMI-8226 leukemia): 351 nM
- TGI (RPMI-8226 leukemia): 30000 nM
- GI50 (RXF 393 renal): 226 nM
- TGI (RXF 393 renal): 516 nM
- GI50 (SF-268 CNS): 1070 nM
- TGI (SF-268 CNS): 6440 nM
- GI50 (SF-295 CNS): 2680 nM
- TGI (SF-295 CNS): 9160 nM
- GI50 (SF-539 CNS): 1180 nM
- TGI (SF-539 CNS): 4270 nM
- GI50 (SK-MEL-2 melanoma): 2400 nM
- TGI (SK-MEL-2 melanoma): 5900 nM
- GI50 (SK-MEL-28 melanoma): 342 nM
- TGI (SK-MEL-28 melanoma): 1490 nM
- GI50 (SK-MEL-5 melanoma): 1230 nM
- TGI (SK-MEL-5 melanoma): 2920 nM
- GI50 (SK-OV-3 ovarian): 9740 nM
- TGI (SK-OV-3 ovarian): 41500 nM
- GI50 (SN12C renal): 495 nM
- TGI (SN12C renal): 3720 nM
- GI50 (SNB-19 CNS): 2330 nM
- TGI (SNB-19 CNS): 14700 nM
- GI50 (SNB-75 CNS): 2180 nM
- TGI (SNB-75 CNS): 7550 nM
- GI50 (SR leukemia): 345 nM
- TGI (SR leukemia): > 100000 nM
- GI50 (SW-620 colon): 351 nM
- TGI (SW-620 colon): 1330 nM
- GI50 (T-47D breast): 358 nM
- TGI (T-47D breast): 6200 nM
- GI50 (TK-10 renal): 961 nM
- TGI (TK-10 renal): 5940 nM
- GI50 (U251 CNS): 366 nM
- TGI (U251 CNS): 4250 nM
- GI50 (UACC-257 melanoma): 1980 nM
- TGI (UACC-257 melanoma): 10900 nM
- GI50 (UACC-62 melanoma): 628 nM
- TGI (UACC-62 melanoma): 2560 nM
- GI50 (UO-31 renal): 391 nM
- TGI (UO-31 renal): 1550 nM
